This assay relates to human washed platelets. The experiment in a line: ADP-induced aggregation of human washed platelets. Format: cell-based. The note with it: SCH442416 10 μM preapplication, data not shown.

For the compound `COc1ccc(CCCn2ncc3c2nc(N)n2nc(-c4ccco4)nc32)cc1` [SCH442416, 5-Amino-7-(3-(4-methoxy)phenylpropyl)-2-(2-furyl)pyrazolo[4,3-e]-1,2,4-triazolo[1,5-c]pyrimidine], the “effect of antagonist alone on aggregation induced by 5 μM ADP” value is recorded as “had no effect on aggregation”. Also, where the note is “5 μM ADP”, the “effect of antagonist on inhibition of platelet aggregation by 1 µM 10” value is reported as “completely reversed the inhibitory effect”.

Values taken from paper PMC2721767 (Purinergic Signalling, 2008).
